This is an account of results in paper PMC4373589 (Journal of medicinal chemistry, 2013).

The structures appear in SMILES notation. Where only a bound is given, the exact number is not on record here.

Series [1] deals with T1, mu opioid receptor (MOR) (Mus musculus, UniProt P42866). The series can be described thus: MOR competitive radioligand binding. The arrangement: species or system mice.
Series [2] concerns the target T2, kappa opioid receptor (KOR) (Mus musculus, UniProt P33534). Nature of the series: biochemical. The class given is binding, mice.
The target in series [3] is T3, delta opioid receptor (DOR) (Mus musculus, UniProt P32300). The series can be described thus: DOR competitive radioligand binding. The arrangement: species or system mice.
Series [4] deals with morphine dependent mice. The series can be described thus: Opioid withdrawal assay in morphine-pelleted mice. It is filed as in vivo. Conditions: for Precipitated withdrawal symptoms, overall comparison: s.c.
For series [5], the system named is antinociception. Nature of the series: Warm-water tail flick assay, acute agonist effect. The following applies: up to 30 mg/kg dose; s.c.
Series [6] concerns the target T3, delta opioid receptor (DOR). Nature of the series: DOR [35S]-GTPγS binding assay.
The target in series [7] is T2, kappa opioid receptor (KOR). The series can be described thus: KOR [35S]-GTPγS binding assay.
Series [8] has as its target T1, mu opioid receptor (MOR). The series can be described thus: MOR [35S]-GTPγS functional assay. It is filed as biochemical, mice.
The mark [9] stands for this setting: increasing dose up to 30 mg/kg s.c.
Setting [10] is: 1 mg/kg s.c., morphine-pelleted mice, counted over 20 minutes.

T2 sequence (P33534 whole entry): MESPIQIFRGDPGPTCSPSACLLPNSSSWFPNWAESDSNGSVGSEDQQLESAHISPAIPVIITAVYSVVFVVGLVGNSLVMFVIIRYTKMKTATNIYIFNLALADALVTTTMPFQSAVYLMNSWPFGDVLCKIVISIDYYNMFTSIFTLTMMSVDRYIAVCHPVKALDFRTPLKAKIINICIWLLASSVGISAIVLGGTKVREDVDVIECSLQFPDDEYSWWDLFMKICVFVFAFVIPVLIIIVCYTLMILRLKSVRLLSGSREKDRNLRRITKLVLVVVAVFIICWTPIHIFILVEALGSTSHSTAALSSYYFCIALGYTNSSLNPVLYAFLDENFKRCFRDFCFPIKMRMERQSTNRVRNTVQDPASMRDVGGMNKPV
T1 sequence (P42866 whole entry): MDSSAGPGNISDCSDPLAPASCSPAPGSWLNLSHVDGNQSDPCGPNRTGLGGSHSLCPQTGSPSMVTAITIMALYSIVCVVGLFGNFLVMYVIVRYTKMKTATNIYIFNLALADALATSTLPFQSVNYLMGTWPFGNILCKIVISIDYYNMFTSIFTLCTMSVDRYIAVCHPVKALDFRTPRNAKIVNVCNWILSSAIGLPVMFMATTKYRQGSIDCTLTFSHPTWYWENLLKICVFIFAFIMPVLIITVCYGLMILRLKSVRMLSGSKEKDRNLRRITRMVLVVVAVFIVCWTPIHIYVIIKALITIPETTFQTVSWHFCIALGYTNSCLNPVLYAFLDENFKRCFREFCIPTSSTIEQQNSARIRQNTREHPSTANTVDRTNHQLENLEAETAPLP
T3 sequence (P32300 whole entry): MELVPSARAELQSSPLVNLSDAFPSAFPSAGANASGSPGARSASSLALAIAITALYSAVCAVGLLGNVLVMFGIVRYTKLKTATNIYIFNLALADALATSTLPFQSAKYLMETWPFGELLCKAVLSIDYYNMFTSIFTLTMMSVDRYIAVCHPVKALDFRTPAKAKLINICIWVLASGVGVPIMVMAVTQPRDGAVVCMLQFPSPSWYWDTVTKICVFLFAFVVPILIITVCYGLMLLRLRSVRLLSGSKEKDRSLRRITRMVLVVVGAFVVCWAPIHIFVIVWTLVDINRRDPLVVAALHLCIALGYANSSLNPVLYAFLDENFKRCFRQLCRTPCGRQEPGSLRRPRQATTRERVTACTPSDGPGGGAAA

`O=C(O[C@@]12CCC(=O)[C@@H]3Oc4c(O)ccc5c4[C@@]31CCN(CC1CC1)[C@@H]2C5)c1ccccn1` [Compound 2, 17-cyclopropylmethyl-4,5α-epoxy-3-hydroxy-14β-O-(pyridyl-2’-carboxy)morphinan-6-one]: the Ki in series [1] came to 0.14 ± 0.03 nM; in series [2], 25.5 ± 6.5 nM; in series [3], 117 ± 18 nM. Also, the “Selectivity to the MOR over the KOR and the DOR” value (“Selectivity to the MOR” below) in series [1] is given as “above 30 fold”.

In the case of `O=C(O[C@@]12CCC(=O)[C@@H]3Oc4c(O)ccc5c4[C@@]31CCN(CC1CC1)[C@@H]2C5)c1cccnc1` [Compound 3, 17-cyclopropylmethyl-4,5α-epoxy-3-hydroxy-14β-O-(pyridyl-3’- carboxy)morphinan-6-one], the Ki came out at 1.59 ± 0.61 nM in series [1], 47.8 ± 8.5 nM in series [2] and 170 ± 12.6 nM in series [3]. The “Selectivity to the MOR” value in series [1] is given as “above 30 fold”.

On to `O=C(O[C@@]12CCC(=O)[C@@H]3Oc4c(O)ccc5c4[C@@]31CCN(CC1CC1)[C@@H]2C5)c1ccncc1` [Compound 4, 17-cyclopropylmethyl-4,5α-epoxy-3-hydroxy-14β-O-(pyridyl-4’-carboxy)morphinan-6-one], for which the Ki stood at 5.58 ± 1.34 nM in series [1], 49.2 ± 20.4 nM in series [2] and 405 ± 235 nM in series [3].

Regarding `O=C(O[C@@]12CCC(=O)[C@@H]3Oc4c(O)ccc5c4[C@@]31CCN(CC1CC1)[C@@H]2C5)c1ccccc1` [Compound 5, 17-cyclopropylmethyl-4,5α-epoxy-3-hydroxy-14β-O-(benzoyloxy)morphinan-6-one], the Ki was 123 ± 38.2 nM in series [1], 586 ± 32.4 nM in series [2] and greater than 10000 nM in series [3]. In series [1] (Table 1, Ki ratio), the “Selectivity δ/μ” value is recorded as greater than 81. Besides, the “Selectivity δ/κ” value in series [2] (Table 1, Ki ratio) is greater than 17.

For `O=C(O[C@@]12CCC(=O)[C@@H]3Oc4c(O)ccc5c4[C@@]31CCN(CC1CC1)[C@@H]2C5)c1cc2ccccc2cn1` [Compound 6, 17-cyclopropylmethyl-4,5α-epoxy-3-hydroxy-14β-O-(isoquinolyl-3’-carboxy)morphinan-6-one], in series [1], the affinity, expressed as Ki, was 68.4 ± 6 nM; the “Selectivity to the MOR” value is recorded as “above 30 fold”. For the same compound, in series [1] (Table 1, Ki ratio), the “Selectivity δ/μ” value is given as greater than 146 and the “Selectivity κ/μ” value is greater than 146. The compound further yielded a Ki in series [2] greater than 10000 nM. In addition, in series [3], the Ki is greater than 10000 nM.

For `O=C(O[C@@]12CCC(=O)[C@@H]3Oc4c(O)ccc5c4[C@@]31CCN(CC1CC1)[C@@H]2C5)c1ccc2ccccc2n1` [Compound 7, 17-cyclopropylmethyl-4,5α-epoxy-3-hydroxy-14β-O-(quinolyl-2’-carboxy)morphinan-6-one], the Ki turned out to be 1.44 ± 0.32 nM in series [1], 67.2 ± 36.7 nM in series [2] and 22.8 ± 19.5 nM in series [3].

Consider `O=C(O[C@@]12CCC(=O)[C@@H]3Oc4c(O)ccc5c4[C@@]31CCN(CC1CC1)[C@@H]2C5)c1cnc2ccccc2c1` [Compound 8, 17-cyclopropylmethyl-4,5α-epoxy-3-hydroxy-14β-O-(quinolyl-3’-carboxy)morphinan-6-one], for which the inhibition constant Ki in series [1] came to 2.69 ± 0.72 nM; in series [2], 148 ± 55.5 nM; in series [3], 818 ± 507 nM. Further, in series [1], the “Selectivity to the MOR” value was “above 30 fold”.

With `O=C(O[C@@]12CCC(=O)[C@@H]3Oc4c(O)ccc5c4[C@@]31CCN(CC1CC1)[C@@H]2C5)c1ccc2ccccc2c1` [Compound 9, 17-cyclopropylmethyl-4,5α-epoxy-3-hydroxy-14β-O-(2-naphthoyloxy)morphinan-6-one], the values for the inhibitory constant (Ki) in series [1], in series [2] and in series [3] were 225 ± 46.6 nM, 46.6 ± 13.5 nM and 907 ± 193 nM, respectively.

For `O=C(N[C@@]12CCC(=O)[C@@H]3Oc4c(O)ccc5c4[C@@]31CCN(CC1CC1)[C@@H]2C5)c1ccccn1` [Compound 10, 17-cyclopropylmethyl-4,5α-epoxy-3-hydroxy-14β-N-[(2’-pyridyl)carboxamido]morphinan-6-one], the “Wet dog shakes at 3 mg/kg” value in series [4] (3 mg/kg s.c.) is “minimal number of wet dog shakes”. Also, in series [4] (10 mg/kg s.c., same level at 30 mg/kg), the “Wet dog shakes at 10 mg/kg” value is listed as “dramatic increase”. Besides, the “Wet dog shakes at high doses” value in series [4] (10 and 30 mg/kg s.c., compared with 1 mg/kg naloxone) is listed as “still lower than that of 1 mg/kg naloxone”. Also, the “Escape jumps, effect of dose” value in series [4] (setting [9]) is “clear decrease of escape jumps as its dose increased (not significantly though)”. Moreover, in series [4] (morphine-pelleted mice), the “Precipitated withdrawal symptoms, overall comparison” value is “less severe withdrawal symptoms than naloxone at high doses”. The results for the Ki in series [1], in series [2] and in series [3] were 1.51 ± 0.34 nM, 0.36 ± 0.01 nM and 94.5 ± 6.5 nM, respectively. Further, the “Agonist effect in tail flick assay” value in series [5] is reported as “None of the compounds produced any significant agonist effect”. In addition, the figures for the EC50 in series [6] and in series [7] were 19.7 ± 7.4 nM and 1.74 ± 0.5 nM, respectively.

Consider `O=C(N[C@@]12CCC(=O)[C@@H]3Oc4c(O)ccc5c4[C@@]31CCN(CC1CC1)[C@@H]2C5)c1cccnc1` [Compound 11, 17-cyclopropylmethyl-4,5α-epoxy-3-hydroxy-14β-N-[(3’-pyridyl)carboxamido]morphinan-6-one], for which, in series [4] (30 mg/kg s.c., compared with 1 mg/kg naloxone and naltrexone), the “Wet dog shakes at 30 mg/kg” value was “resembled the effect of 1 mg/kg naloxone and naltrexone”. Further, in series [4] (setting [9]), the “Escape jumps, effect of dose” value was “dose-response increasing effect”. Moreover, the “Wet dog shakes, effect of dose” value in series [4] (setting [9]) is “dose-response increasing effect”. In addition, the “Precipitated withdrawal symptoms, overall comparison” value in series [4] (morphine-pelleted mice) is “behaved similarly to naltrexone”. Further, the Ki in series [1] was determined as 0.75 ± 0.28 nM; in series [2], 0.16 ± 0.01 nM; in series [3], 39.9 ± 0.5 nM. The “Agonist effect in tail flick assay” value in series [5] was “None of the compounds produced any significant agonist effect”. The values for the EC50 in series [6] and in series [7] were 3.2 ± 2 nM and 0.56 ± 0.06 nM, respectively.

Consider `O=C(N[C@@]12CCC(=O)[C@@H]3Oc4c(O)ccc5c4[C@@]31CCN(CC1CC1)[C@@H]2C5)c1ccncc1` [Compound 12, 17-cyclopropylmethyl-4,5α-epoxy-3-hydroxy-14β-N-[(4’-pyridyl)carboxamido]morphinan-6-one], for which the results for the Ki in series [1], in series [2] and in series [3] were 0.82 ± 0.33 nM, 0.33 ± 0.01 nM and 10.9 ± 1.3 nM, respectively.

With `O=C(N[C@@]12CCC(=O)[C@@H]3Oc4c(O)ccc5c4[C@@]31CCN(CC1CC1)[C@@H]2C5)c1ccccc1` [Compound 13, 17-cyclopropylmethyl-4,5α-epoxy-3-hydroxy-14β-N-(benzamido)morphinan-6-one], the Ki is 4.34 ± 0.7 nM in series [1], 0.12 ± 0.001 nM in series [2] and 57.3 ± 4.3 nM in series [3].

As to `O=C(N[C@@]12CCC(=O)[C@@H]3Oc4c(O)ccc5c4[C@@]31CCN(CC1CC1)[C@@H]2C5)c1ccc2ccccc2n1` [Compound 15, 17-cyclopropylmethyl-4,5α-epoxy-3-hydroxy-14β-N-[(2’-quinolyl)carboxamido]morphinan-6-one], the inhibition constant (Ki) in series [1] worked out at 9.09 ± 4.94 nM; in series [2], 0.26 ± 0.01 nM; in series [3], 15.1 ± 0.6 nM.

Consider `O=C(N[C@@]12CCC(=O)[C@@H]3Oc4c(O)ccc5c4[C@@]31CCN(CC1CC1)[C@@H]2C5)c1cnc2ccccc2c1` [Compound 16, 17-cyclopropylmethyl-4,5α-epoxy-3-hydroxy-14β-N-[(3’-quinolyl)carboxamido]morphinan-6-one], for which the Ki in series [1] amounted to 1.13 ± 0.25 nM; in series [2], 0.13 ± 0.02 nM; in series [3] it was 1.48 ± 0.05 nM.

Take `O=C(N[C@@]12CCC(=O)[C@@H]3Oc4c(O)ccc5c4[C@@]31CCN(CC1CC1)[C@@H]2C5)c1ccc2ccccc2c1` [Compound 17]: the Ki came out at 6.22 ± 4.01 nM in series [1], 0.33 ± 0.02 nM in series [2] and 10.5 ± 1.4 nM in series [3].

Consider `O=C(Cc1ccccn1)N[C@@]12CCC(=O)[C@@H]3Oc4c(O)ccc5c4[C@@]31CCN(CC1CC1)[C@@H]2C5` [Compound 18, 17-cyclopropylmethyl-4,5α-epoxy-3-hydroxy-14β-N-[2’-(pyridin-2”-yl)acetamido]morphinan-6-one], for which the Ki in series [1] worked out at 0.29 ± 0.04 nM; in series [2], 0.19 ± 0.03 nM; in series [3], 3.92 ± 0.12 nM. For the same compound, the “MOR agonism / efficacy in [35S]-GTPγS binding assay (in words)” value (from here on “MOR agonism / efficacy”) in series [8] is listed as “MOR partial agonist with relatively high efficacy”.

On to `O=C(CCc1ccccn1)N[C@@]12CCC(=O)[C@@H]3Oc4c(O)ccc5c4[C@@]31CCN(CC1CC1)[C@@H]2C5` [Compound 19, 17-cyclopropylmethyl-4,5α-epoxy-3-hydroxy-14β-N-[3’-(pyridin-2”-yl)propanamido]morphinan-6-one], for which the Ki was 0.32 ± 0.04 nM in series [1], 0.17 ± 0.02 nM in series [2] and 9.1 ± 0.5 nM in series [3]. For the same compound, the “MOR agonism / efficacy” value in series [8] is “low efficacy MOR partial agonists”.

As for `O=C(CNC(=O)c1ccccn1)N[C@@]12CCC(=O)[C@@H]3Oc4c(O)ccc5c4[C@@]31CCN(CC1CC1)[C@@H]2C5` [Compound 20, 17-cyclopropylmethyl-4,5α-epoxy-3-hydroxy-14β-N-{2’-[(pyridin-2”-yl)carboxamido]acetamido}morphinan-6-one], the Ki in series [1] was found to be 0.3 ± 0.01 nM; in series [2], 0.14 ± 0.01 nM; in series [3] it was 0.37 ± 0.04 nM. Moreover, the “MOR agonism / efficacy” value in series [8] is on record as “low efficacy MOR partial agonists”.

As for `O=C1CC[C@@]2(O)[C@H]3Cc4ccc(O)c5c4[C@@]2(CCN3CC2CC2)[C@H]1O5` [NTX, naltrexone, reference compound], in series [4] (setting [10]), the Escape jumps result was “over twenty times” and the Wet dog shakes result was “above seven times”.
